The values below come from PMC12040169 (PLOS Biology, 2025).

As usually defined, the viability is a read-out of living cells in per cent, often relative to untreated cells.

The series can be described thus: in vitro. The following applies: human, hela cells, % viability.
Take `Cn1c(SCC(=O)Nc2ccc(N3CCOCC3)c(Cl)c2)nnc1-c1ccc(N)cc1` [CBK265777]: the viability at 28.5 h, 10 µM is 102%.

`CC(C)(C)CC(=O)O/N=C(\N)c1ccccn1` [CBK265779]: the viability at 28.5 h, 10 µM amounted to 105%.

As to `COc1cccc(CNn2cnnc2S)c1OCc1ccccc1` [CBK265781], the viability at 28.5 h, 10 µM amounted to 96.3%.

`NC(=O)C1CCN(CC(=O)Nc2ccc([N+](=O)[O-])cc2C(=O)c2ccccc2)CC1` [CBK265782]: the viability at 28.5 h, 10 µM came out at 89.3%.

Consider `Cc1ccccc1OCC(=O)NN1CCN(C)CC1` [CBK265783C], for which the viability at 28.5 h, 10 µM is 89%.

As for `CN(C)CCCNc1cc(Cl)c(S(=O)(=O)N2CCCCC2)cc1C(=O)O` [CBK265784], the viability at 28.5 h, 10 µM stood at 95.5%.

For `CCC(Sc1nnc(-c2ccc([N+](=O)[O-])cc2)n1C)C(=O)Nc1ccc(Cl)cc1` (stereo not shown) [CBK265785], the viability at 28.5 h, 10 µM amounted to 101%.

For the compound `C/C(=C(/C(=O)N(N)c1nc2ccccc2s1)C(=O)C(F)(F)F)N1CCC(C(N)=O)(N2CCCCC2)CC1` [CBK265787], the viability at 28.5 h, 10 µM came to 101%.

`COc1ccccc1NC(=O)c1sc2ncn(CC(=O)NC3CCCCC3)c(=O)c2c1C` [CBK265788]: the viability at 28.5 h, 10 µM amounted to 98.5%.

As for `Cc1ccc(-c2nc3ccccc3[nH]2)cc1NC(=O)CCCc1ccccc1` [CBK265789], the viability at 28.5 h, 10 µM came to 92.9%.

Consider `O=C(Nc1ccc2c(c1)OCCO2)c1cc(S(=O)(=O)N2CCCCC2)c(Cl)cc1Cl` [CBK265790], for which the viability at 28.5 h, 10 µM came out at 90%.

Regarding `CN(CC(=O)N1CCN(Cc2ccc3c(c2)OCO3)CC1)S(=O)(=O)c1ccccc1` [CBK265791], the viability at 28.5 h, 10 µM turned out to be 87%.

As to `CC1=CCC(C(=O)O)C(C(=O)Nc2ccccc2NC(=O)c2ccc(C(F)(F)F)cc2)C1` (stereo not shown) [CBK265794], the viability at 28.5 h, 10 µM was determined as 99.9%.

Turning to `Cc1nn(Cc2ccc(C(=O)N3CCN(Cc4ccccc4)CC3)o2)c(C)c1Br` [CBK265796C], the viability at 28.5 h, 10 µM turned out to be 88.8%.

For the compound `CCC1C=CCC(C(=O)O)C1C(=O)Nc1ccc(C(=O)N2CCOCC2)cc1` (stereo not shown) [CBK265798], the viability at 28.5 h, 10 µM came to 102%.

`O=C(CN1CCN(c2ccccc2)CC1)Nc1ccc([N+](=O)[O-])cc1C(=O)c1ccccc1` [CBK265799]: the viability at 28.5 h, 10 µM is 89.6%.

Regarding `O=C(CN(Cc1ccc(Cl)cc1Cl)S(=O)(=O)c1ccccc1)Nc1c(F)cccc1F` [CBK265801], the viability at 28.5 h, 10 µM was 99.1%.

In the case of `CC(=O)Nc1ccc(Nc2ncnc3c2cnn3-c2ccc(C)cc2C)cc1` [CBK265803], the viability at 28.5 h, 10 µM amounted to 116%.

Regarding `COC(Cc1nc2ccccc2s1)C(=O)O` (stereo not shown) [CBK265806], the viability at 28.5 h, 10 µM was 101%.

For the compound `O=c1c(-c2ccccc2)c(C(F)(F)F)oc2c(CN3CCN(Cc4ccccc4)CC3)c(O)ccc12` [CBK265808], the viability at 28.5 h, 10 µM amounted to 95%.

Turning to `Cc1ccc(N(C(=O)COc2ccc(C(C)(C)C)cc2)C2C=CS(=O)(=O)C2)cc1` (stereo not shown) [CBK265811], the viability at 28.5 h, 10 µM was determined as 105%.

Take `O=C(NC(=S)Nc1ccc(-c2nc3ncccc3o2)cc1)c1ccc2c(c1)OCCO2` [CBK265812]: the viability at 28.5 h, 10 µM came to 96.4%.

With `Cc1ccc(CN(CC(=O)N2CCC(C(N)=O)CC2)S(=O)(=O)c2ccc(Br)cc2)cc1` [CBK265813], the viability at 28.5 h, 10 µM came out at 102%.

As to `CCN1CCN(c2ncnc3c2cnn3-c2cccc(C)c2)CC1` [CBK265814], the viability at 28.5 h, 10 µM is 93.8%.

Consider `COc1ccc(Cc2nnc(SCC(=O)Nc3ccc(Br)c(C)c3)n2C)cc1` [CBK265816], for which the viability at 28.5 h, 10 µM amounted to 83.9%.

On to `NS(=O)(=O)c1ccc(NC(=S)NCCN2CCOCC2)cc1` [CBK265818], for which the viability at 28.5 h, 10 µM amounted to 107%.

Take `CCC(=O)c1cccc2c1NC=C1C(=O)CC(C)(C)CC1=N2` [CBK265821]: the viability at 28.5 h, 10 µM was 108%.

For the compound `CC(=O)Nc1ccc(-c2nnc(SCc3c(Cl)cccc3[N+](=O)[O-])n2C)cc1` [CBK265823], the viability at 28.5 h, 10 µM was 89.1%.

As to `CCOc1cccc(CNn2cnnc2)c1OCc1ccccc1` [CBK265824], the viability at 28.5 h, 10 µM was 81.2%.

Consider `CCSc1nc2ccccc2n1C(=O)c1ccc(S(=O)(=O)N2CCCCCC2)cc1` [CBK265825], for which the viability at 28.5 h, 10 µM was 91.6%.

As to `CCn1ncc(Br)c1C(=O)Nc1ccc(Cl)cn1` [CBK265826], the viability at 28.5 h, 10 µM came out at 94.8%.

As for `O=C(CN1CCN(c2ccccc2)CC1)Nc1ccc(Cl)cc1C(=O)c1ccccc1` [CBK265827], the viability at 28.5 h, 10 µM was determined as 107%.

Regarding `C/C(O)=C1/C(=O)N(c2nc3ccccc3s2)N=C1CC(=O)O` [CBK265828], the viability at 28.5 h, 10 µM turned out to be 90.5%.

With `Cc1ccccc1OCc1nnc(SCC(=O)c2ccc3c(c2)Cc2ccccc2-3)n1C` [CBK265829], the viability at 28.5 h, 10 µM amounted to 93.9%.

In the case of `COC(=O)C1C(=O)NC(SCC(=O)Nc2cccc(Cl)c2C)=C(C#N)C1c1ccccc1F` (stereo not shown) [CBK265830], the viability at 28.5 h, 10 µM worked out at 94.9%.

On to `Cc1ccc(C(C)C)c(OCc2ccc(C(=O)Nc3ccc(S(N)(=O)=O)cc3C)o2)c1` [CBK265833], for which the viability at 28.5 h, 10 µM came to 96.3%.

Consider `CCOC(=O)c1cnc2ccc(F)cc2c1NCc1ccco1` [CBK265834], for which the viability at 28.5 h, 10 µM worked out at 97%.

Regarding `CCn1nccc1C(=O)NC1=C(C#N)CCC1` [CBK265836], the viability at 28.5 h, 10 µM was 97.6%.

For `CCCC(=O)Nc1ccccc1NC(=O)c1ccc2c(c1)OCO2` [CBK265841], the viability at 28.5 h, 10 µM came out at 103%.

Consider `COc1ccccc1NC(=O)c1ccc(OCC(=O)O)cc1` [CBK265849], for which the viability at 28.5 h, 10 µM was found to be 100%.

With `NCCc1c[nH]c2ccc(OCC(=O)O)cc12` [CBK265853C], the viability at 28.5 h, 10 µM is 86.2%.

Consider `Cn1c(Cc2cccc3ccccc23)nnc1SCC(=O)Nc1ccccc1F` [CBK265856], for which the viability at 28.5 h, 10 µM was found to be 85%.

`Cc1ccc2nc(-c3ccc(NC(=O)CSc4nc(-c5ccccc5)cc(=O)[nH]4)cc3)sc2c1` [CBK265861]: the viability at 28.5 h, 10 µM is 78.5%.

In the case of `O=C(CN1CCN(Cc2ccc3c(c2)OCO3)CC1)Nc1ccc(Oc2ccccc2)cc1` [CBK265864], the viability at 28.5 h, 10 µM turned out to be 94%.

Take `CCOc1ccc(-c2nc(C#N)c(NCCN3CCOCC3)o2)cc1` [CBK265867]: the viability at 28.5 h, 10 µM was determined as 112%.

`N#Cc1ccccc1CSc1nc2ccc(NC(=O)c3ccc([N+](=O)[O-])cc3)cc2s1` [CBK265868]: the viability at 28.5 h, 10 µM is 90.7%.

Turning to `Cc1ccc(-c2ccc(CCC(=O)O)n2N=C(N)S)cc1` [CBK265870], the viability at 28.5 h, 10 µM worked out at 91%.

Regarding `NC(=O)c1c(NC(=O)c2ccc(COc3ccc4ccccc4c3)o2)sc2c1CCCC2` [CBK265871], the viability at 28.5 h, 10 µM was found to be 88.5%.

For `COc1ccc(OC)c(NC(=O)CSc2nnc(-c3ccc(N)cc3)n2C)c1` [CBK265872], the viability at 28.5 h, 10 µM was found to be 106%.

For `Cc1cc(NC(=O)CCCN2C(=O)c3cccc4cccc(c34)C2=O)n(-c2ccccc2)n1` [CBK265874], the viability at 28.5 h, 10 µM is 109%.

Turning to `Cc1ccc(S(=O)(=O)NC2c3cccc4cccc(c34)C2Sc2n[nH]c(N)n2)cc1` (stereo not shown) [CBK265875], the viability at 28.5 h, 10 µM is 77.6%.

With `O=c1c2ccccc2nc(/C=C/c2cccnc2)n1Cc1ccccc1` [CBK265876], the viability at 28.5 h, 10 µM is 106%.

Take `CN(C)CCNC(=O)c1ccc(COc2ccc(Cl)cc2Cl)cc1` [CBK265878]: the viability at 28.5 h, 10 µM came out at 90.9%.

With `N#Cc1nc(-c2ccccc2F)oc1NCCCN1CCOCC1` [CBK265881], the viability at 28.5 h, 10 µM is 107%.

Take `CN(C)S(=O)(=O)c1cc(C(=O)NCCc2c[nH]c3ccccc23)c(Cl)cc1Cl` [CBK265883]: the viability at 28.5 h, 10 µM amounted to 87.5%.

`Cc1ccc(S(=O)(=O)NC2c3cccc4cccc(c34)C2Sc2nnnn2-c2ccccc2)cc1` (stereo not shown) [CBK265884]: the viability at 28.5 h, 10 µM came to 93.1%.

Consider `O=C(c1cccc(S(=O)(=O)N2CCOCC2)c1)N(Cc1ccc(F)cc1)Cc1ccco1` [CBK265885], for which the viability at 28.5 h, 10 µM came out at 92.8%.

In the case of `OCCN1CCN(C(S)=NC2CCCC2)CC1` [CBK265886], the viability at 28.5 h, 10 µM turned out to be 91.6%.

On to `Cc1ccc([N+](=O)[O-])cc1NC(=O)CSc1nnc(Cc2ccccc2)o1` [CBK265889], for which the viability at 28.5 h, 10 µM is 116%.

On to `CC1=CCC(C(=O)O)C(C(=O)Nc2cccnc2)C1` (stereo not shown) [CBK265895], for which the viability at 28.5 h, 10 µM came to 92.9%.

Turning to `NC(=O)C1(N2CCCCC2)CCN(C(=S)Nc2ccc(S(N)(=O)=O)cc2)CC1` [CBK265900], the viability at 28.5 h, 10 µM came out at 90.5%.

In the case of `Cc1cccc(-n2c(SCC(=O)Nc3ccc(Br)cc3F)nnc2-c2ccccc2)c1` [CBK265903], the viability at 28.5 h, 10 µM came out at 98.9%.

As to `CN(C)S(=O)(=O)N(CC(=O)Nc1cccc([N+](=O)[O-])c1)c1ccccc1` [CBK265904], the viability at 28.5 h, 10 µM is 90.2%.

On to `Cn1c(SCC(=O)Nc2ccc(Br)cc2C(F)(F)F)nnc1-c1ccncc1` [CBK265905], for which the viability at 28.5 h, 10 µM worked out at 84.4%.

Turning to `Cc1ccc(C)c(Oc2coc3cc(OCC(=O)Nc4ccccc4C(C)C)ccc3c2=O)c1` [CBK265906], the viability at 28.5 h, 10 µM was found to be 113%.

Consider `Cc1sc2ncnc(NCCOCCO)c2c1C` [CBK265907], for which the viability at 28.5 h, 10 µM was determined as 104%.

For the compound `CC1CCc2c(sc(NC(=O)c3ccccc3)c2CN2CCCC2)C1` (stereo not shown) [CBK265908], the viability at 28.5 h, 10 µM turned out to be 98.7%.

On to `Cc1ccc(-n2c(SCC(=O)NCc3ccccc3)nnc2-c2ccc(Cl)cc2)cc1C` [CBK265909], for which the viability at 28.5 h, 10 µM was determined as 97.9%.

Take `CC(C)c1ccc(OCC(=O)NCc2ccccn2)c(Br)c1` [CBK265910]: the viability at 28.5 h, 10 µM stood at 99.2%.

As for `COc1ccc([N+](=O)[O-])cc1Nc1nc(-c2ccccc2)nc2ccccc12` [CBK265913], the viability at 28.5 h, 10 µM was 95.4%.

As to `O=S(=O)(NCC1CCCO1)c1ccc2oc3ccc(S(=O)(=O)NCC4CCCO4)cc3c2c1` (stereo not shown) [CBK265914], the viability at 28.5 h, 10 µM amounted to 96.2%.

Take `COc1ccc(C(=O)Nc2ccc3c(c2)C(=O)N(CCC(=O)O)C3=O)cc1` [CBK265921]: the viability at 28.5 h, 10 µM turned out to be 93.1%.

In the case of `Cc1ccc(-c2noc(CN3CCN(c4ccccc4)CC3)n2)cc1` [CBK265924], the viability at 28.5 h, 10 µM turned out to be 101%.

For the compound `Cc1cc2nnc(SCC(=O)Nc3ccc4c(c3)OCO4)n2c2ccccc12` [CBK265926], the viability at 28.5 h, 10 µM is 82.8%.

Consider `CCn1c(SCC(=O)Nc2ccc(C(=O)O)cc2)nnc1-c1ccccc1C` [CBK265927], for which the viability at 28.5 h, 10 µM came out at 107%.

With `Cc1ccc(-c2nc3ccccc3[nH]2)cc1NC(=O)COc1cccc([N+](=O)[O-])c1` [CBK265932], the viability at 28.5 h, 10 µM stood at 94.3%.
